Our source for the IC50, Ratio and MED values is ChEMBL document CHEMBL3046304, “Discovery of a series of novel compounds with moderate anti-avian H5N1 influenza virus activity in chick embryo” (Med Chem Res, 2013).

For experiment [1], the target named is T1, Neuraminidase (Influenza A virus, UniProt B4URF0). Also on record: species or system (A/chicken/Shandong/LY/2008(H9N2)).
Experiment [2] deals with Influenza A virus. Nature of the experiment: Ratio of compound MED to oseltamivir carboxylate MED for influenza A virus (A/duck/China/QJ/01(H5N1)) infected in chick embryo measured after 5 days by hemagglutination assay. Type of experiment: functional.
The test system of experiment [3] is Influenza A virus. Type of experiment: functional.
Experiment [4] addresses T1, Neuraminidase. More on the design: species or system (A/duck/China/QJ/01(H5N1)).
Experiment [5] relates to Influenza A virus. Nature of the experiment: Ratio of compound MED to oseltamivir MED for influenza A virus (A/duck/China/QJ/01(H5N1)) infected in chick embryo measured after 5 days by hemagglutination assay. Type of experiment: functional.
Experiment [6] can be described thus: Inhibition of neuraminidase.

T1 sequence (B4URF0 whole entry): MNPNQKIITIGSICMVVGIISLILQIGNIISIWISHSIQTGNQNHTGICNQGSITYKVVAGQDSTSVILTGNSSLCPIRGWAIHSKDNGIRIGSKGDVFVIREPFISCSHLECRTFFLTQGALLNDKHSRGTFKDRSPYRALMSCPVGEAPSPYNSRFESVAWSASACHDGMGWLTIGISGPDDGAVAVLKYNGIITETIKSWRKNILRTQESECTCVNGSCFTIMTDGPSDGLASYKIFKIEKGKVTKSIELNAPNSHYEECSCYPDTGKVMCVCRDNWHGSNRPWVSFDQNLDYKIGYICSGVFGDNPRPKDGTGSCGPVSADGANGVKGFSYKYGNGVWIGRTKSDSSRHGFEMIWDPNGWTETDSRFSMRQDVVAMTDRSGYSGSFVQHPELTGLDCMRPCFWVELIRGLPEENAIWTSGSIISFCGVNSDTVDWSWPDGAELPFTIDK

The IC50 is the concentration that gives 50% inhibition. Low readings indicate greater potency, high ones weaker potency. In the case of `CC[C@H](C)[C@H](N)C(=O)Nc1cc(NC(=O)/C=C/c2ccco2)ccc1O.Cl`, the IC50 was found to be 119 µM in experiment [1] and 103 µM in experiment [4]. Moreover, the Ratio in experiment [2] and in experiment [5] was 4 in each case. The compound further showed an MED in experiment [3] of 2.5 µM.
Regarding `NC(Cn1ccc(=O)c(O)c1)C(=O)N[C@@H](Cc1ccc(O)cc1)C(=O)O` (stereo partly specified), the IC50 in experiment [6] worked out at 2.8 µM.
The same measure, in the same setting: for `NC(Cn1ccc(=O)c(O)c1)C(=O)N[C@@H](Cc1ccccc1)C(=O)O` (stereo partly specified) the value was 1.8 µM.
In the case of `Cl.N=C(NCCC[C@H](N)C(=O)Nc1cc(NC(=O)/C=C/c2ccco2)ccc1O)N[N+](=O)[O-]`, the concentration for half-maximal inhibition (IC50) turned out to be 193 µM in experiment [1] and 192 µM in experiment [4]. For the same compound, the Ratio in experiment [2] and in experiment [5] was 4 each time. This compound also registered an MED in experiment [3] of 5 µM.
On to `Cl.NCCCC(=O)Nc1cc(NC(=O)/C=C/c2ccco2)ccc1O`, for which the IC50 in experiment [1] was found to be 167 µM; in experiment [4], 132 µM. The Ratio in experiment [2] and in experiment [5] was 4 each time. The compound also registered an MED in experiment [3] of 5 µM.
For `Cl.NCCCC[C@H](N)C(=O)Nc1cc(NC(=O)/C=C/c2ccco2)ccc1O`, the half-inhibitory concentration (IC50) in experiment [1] is 215 µM; in experiment [4] it was 225 µM. Also, the Ratio in experiment [2] and in experiment [5] was 4 in each case. For the same compound, the MED in experiment [3] turned out to be 5 µM.
Regarding `Cl.N[C@@H](Cc1c[nH]c2ccccc12)C(=O)Nc1cc(NC(=O)/C=C/c2ccco2)ccc1O`, the values for the IC50 in experiment [1] and in experiment [4] were 194 µM and 189 µM, respectively. Also, the Ratio in experiment [2] and in experiment [5] was 4 in each case. Also, the MED in experiment [3] turned out to be 2.5 µM.
In the case of `Cl.N[C@@H](Cc1ccccc1)C(=O)Nc1cc(NC(=O)/C=C/c2ccco2)ccc1O`, the half-inhibitory concentration (IC50) in experiment [1] was 143 µM; in experiment [4], 130 µM. Further, the Ratio in experiment [2] and in experiment [5] was 4 in each case. Further, the MED in experiment [3] came to 5 µM.
Regarding `CC(C)[C@H](N)C(=O)Nc1cc(NC(=O)/C=C/c2ccco2)ccc1O.Cl`, the concentration for half-maximal inhibition (IC50) in experiment [1] was found to be 165 µM; in experiment [4], 175 µM. The Ratio in experiment [2] and in experiment [5] was 4 each time. This compound also returned an MED in experiment [3] of 2.5 µM.
As to `CSCC[C@H](N)C(=O)Nc1cc(NC(=O)/C=C/c2ccco2)ccc1O.Cl`, the IC50 was found to be 144 µM in experiment [1] and 121 µM in experiment [4]. In addition, the Ratio in experiment [2] and in experiment [5] was 4 throughout. In addition, in experiment [3], the MED amounted to 5 µM.
For `Cl.N[C@@H](CO)C(=O)Nc1cc(NC(=O)/C=C/c2ccco2)ccc1O`, the figures for the concentration for half-maximal inhibition (IC50) in experiment [1] and in experiment [4] were 158 µM and 143 µM, respectively. Further, the Ratio in experiment [2] and in experiment [5] was 4 each time. Besides, the MED in experiment [3] worked out at 5 µM.
Consider `C[C@H](N)C(=O)Nc1cc(NC(=O)/C=C/c2ccco2)ccc1O.Cl`, for which the figures for the IC50 in experiment [1] and in experiment [4] were 91.7 µM and 110 µM, respectively. Besides, the Ratio in experiment [2] and in experiment [5] was 4 each time. The compound also returned an MED in experiment [3] of 5 µM.
Turning to `Cl.NCC(=O)Nc1cc(NC(=O)/C=C/c2ccco2)ccc1O`, the IC50 in experiment [1] is 175 µM; in experiment [4], 139 µM. The Ratio in experiment [2] and in experiment [5] was 4 each time. The compound also showed an MED in experiment [3] of 5 µM.
As for `C[C@@H](O)[C@H](N)C(=O)Nc1cc(NC(=O)/C=C/c2ccco2)ccc1O.Cl`, the concentration for half-maximal inhibition (IC50) turned out to be 200 µM in experiment [1] and 187 µM in experiment [4]. Also, the Ratio in experiment [2] and in experiment [5] was 4 each time. This compound also registered an MED in experiment [3] of 5 µM.
For the compound `CC(C)C[C@H](N)C(=O)Nc1cc(NC(=O)/C=C/c2ccco2)ccc1O.Cl`, the values for the 50% inhibitory concentration (IC50) in experiment [1] and in experiment [4] were 179 µM and 148 µM, respectively. Also, the Ratio in experiment [2] and in experiment [5] was 4 throughout. Besides, the MED in experiment [3] is 5 µM.
For the compound `Cl.NCCC(=O)Nc1cc(NC(=O)/C=C/c2ccco2)ccc1O`, the half-maximal inhibitory concentration (IC50) in experiment [1] turned out to be 118 µM; in experiment [4], 108 µM. Also, the Ratio in experiment [2] and in experiment [5] was 4 each time. In experiment [3], this compound displayed an MED of 5 µM.
Take `Cl.O=C(/C=C/c1ccco1)Nc1ccc(O)c(NC(=O)[C@@H]2C[C@@H](O)CN2)c1`: the IC50 in experiment [1] was 111 µM; in experiment [4] it was 109 µM. Also, the Ratio in experiment [2] and in experiment [5] was 4 throughout. In experiment [3], the MED was found to be 5 µM.
On to `Cl.O=C(/C=C/c1ccco1)Nc1ccc(O)c(NC(=O)[C@@H]2CCCN2)c1`, for which the IC50 in experiment [1] was 85.3 µM; in experiment [4], 57.8 µM. Further, the Ratio in experiment [2] and in experiment [5] was 4 each time. Also, the MED in experiment [3] is 5 µM.
In the case of `C[C@H](N)C(=O)Nc1cc(NC(=O)/C=C/c2ccc(O)c(O)c2)ccc1O.Cl`, the 50% inhibitory concentration (IC50) in experiment [1] worked out at 105 µM; in experiment [4], 113 µM. The Ratio in experiment [2] and in experiment [5] was 4 each time. In experiment [3], this compound gave an MED of 5 µM.
With `CC[C@H](C)[C@H](N)C(=O)Nc1cc(NC(=O)/C=C/c2ccc(O)c(O)c2)ccc1O.Cl`, the values for the IC50 in experiment [1] and in experiment [4] were 0.0017 µM and 0.012 µM, respectively. Moreover, the Ratio in experiment [2] and in experiment [5] was 4 throughout. The MED in experiment [3] was 2.5 µM.
For the compound `CC(C)[C@H](N)C(=O)Nc1cc(NC(=O)/C=C/c2ccc(O)c(O)c2)ccc1O.Cl`, the IC50 in experiment [1] worked out at 138 µM; in experiment [4] it was 114 µM. Also, the Ratio in experiment [2] and in experiment [5] was 4 throughout. The MED in experiment [3] came to 2.5 µM.
Take `CC(C)C[C@H](N)C(=O)Nc1cc(NC(=O)/C=C/c2ccc(O)c(O)c2)ccc1O.Cl`: the IC50 was 154 µM in experiment [1] and 135 µM in experiment [4]. For the same compound, the Ratio in experiment [2] and in experiment [5] was 4 each time. The compound further registered an MED in experiment [3] of 2.5 µM.
As for `O=c1cc(-c2ccc(O)cc2)oc2cc(O)cc(O)c12` [APIGENIN], the Ratio in experiment [2] and in experiment [5] was 4 each time.
As to `CCC(CC)O[C@@H]1C=C(C(=O)O)C[C@H](N)[C@H]1NC(C)=O.Cl` [OSELTAMIVIR CARBOXYLATE HYDROCHLORIDE], in experiment [3], the MED was 0.625 µM.
The same measure, in the same setting: the value for `CCOC(=O)C1=C[C@@H](OC(CC)CC)[C@H](NC(C)=O)[C@@H](N)C1.O=P(O)(O)O` [OSELTAMIVIR PHOSPHATE] was 0.625 µM.
